This passage reports IC50 results from patent US20240408085A1, “COMPOUND FOR DEGRADATION OF BCL-2 FAMILY PROTEINS AND MEDICAL APPLICATION THEREOF” (XIZANG HAISCO PHARMACEUTICAL CO., LTD., priority 2021, published 2024).

The test has as its system MOLT-4 cells. Kind of test: Cell proliferation activity in MOLT-4 cells (72 h, cell viability luminescence). The format is cell-based, human. The note with it: Homo sapiens, read-out: IC50 for the inhibition of MOLT-4 cell proliferation. The protocol:
MOLT-4 cells are acute lymphoblastic leukemia cell lines in humans. The cells were purchased from ATCC. Culture conditions: RPMI-1640+10% FBS+1% penicillin-streptomycin solution. The cells were cultured in a 37° C., 5% CO2 incubator. The cells were plated in a 96-well plate, with 5×10^3 cells/well. After plating, compounds at different concentrations were added and cultured in a 37° C., 5% CO2 incubator for 72 h. After the completion of culture, a reagent (Promega, G7573) for detecting the cell viability was added. The mixture was uniformly mixed for 2 minutes and then incubated at room temperature for 10 minutes. The luminescence signal was detected with a multimode plate reader (BMG, PHERAstar FSX). The luminescence readings were processed using GraphPad Prism 8.0 software and the IC50 values of the compounds for the inhibition of cell proliferation and the maximum inhibition rate were calculated according to formula (2) and formula (3), respectively, wherein Tadministration denotes the cell signal readings obtained after incubation with the compounds for 72 h, and Tvehicle denotes the cell signal readings obtained after incubation with the vehicle control for 72 h.
Calculation of Max inhibition %: after the processing according to formula (2), the inhibition rate of the compounds at the highest concentration was calculated.

For the compound `Cc1ncsc1-c1ccc([C@H](C)NC(=O)[C@@H]2C[C@@H](O)CN2C(=O)[C@@H](NC(=O)CCCCCCC(=O)N2C[C@H]3CN(CC[C@H](CSc4ccccc4)Nc4ccc(S(=O)(=O)NC(=O)c5ccc(N6CCN(CC7=C(c8ccc(Cl)cc8)CCC(C)(C)C7)CC6)cc5)cc4S(=O)(=O)C(F)(F)F)C[C@H]3C2)C(C)(C)C)cc1` [Compound 17, cis-(2S,4R)-1-((S)-2-(8-(5-((R)-3-((4-(N-(4-(4-((4′-chloro-4,4-dimethyl-3,4,5,6-tetrahydro-[1,1′-biphenyl]-2-yl)methyl)piperazin-1-yl)benzoyl)sulfamoyl)-2-((trifluoromethyl)sulfonyl)phenyl)amino)-4-(phenylthio)butyl)hexahydropyrrolo[3,4-c]pyrrol-2(1H)-yl)-8-oxooctanamido)-3,3-dimethylbutanoyl)-4-hydroxy-N—((S)-1-(4-(4-methylthiazol-5-yl)phenyl)ethyl)pyrrolidine-2-carboxamide], the IC50 was less than 500 nM.
On to `Cc1ncsc1-c1ccc([C@H](C)NC(=O)[C@@H]2C[C@@H](O)CN2C(=O)[C@@H](NC(=O)CCCCCC(=O)N2CCN(CC[C@H](CSc3ccccc3)Nc3ccc(S(=O)(=O)NC(=O)c4ccc(N5CCN(CC6=C(c7ccc(C#N)cc7)CCC(C)(C)C6)CC5)cc4)cc3S(=O)(=O)C(F)(F)F)CC2)C(C)(C)C)cc1` [Trifluoroacetate of compound 4, (2S,4R)-1-((S)-2-(7-(4-((R)-3-((4-(N-(4-(4-((4′-cyano-4,4-dimethyl-3,4,5,6-tetrahydro-[1,1′-biphenyl]-2-yl)methyl)piperazin-1-yl)benzoyl)sulfamoyl)-2-((trifluoromethyl)sulfonyl)phenyl)amino)-4-(phenylthio)butyl)piperazin-1-yl)-7-oxoheptanamido)-3,3-dimethylbutanoyl)-4-hydroxy-N—((S)-1-(4-(4-methylthiazol-5-yl)phenyl)ethyl)pyrrolidine-2-carboxamide], for which the IC50 was less than 500 nM.
With `Cc1ncsc1-c1ccc([C@H](C)NC(=O)[C@@H]2C[C@@H](O)CN2C(=O)[C@@H](NC(=O)CCCCCC(=O)N2C[C@@H]3C[C@H]2CN3CC[C@H](CSc2ccccc2)Nc2ccc(S(=O)(=O)NC(=O)c3ccc(N4CCN(CC5=C(c6ccc(Cl)cc6)CCCCC5)CC4)cc3)cc2S(=O)(=O)C(F)(F)F)C(C)(C)C)cc1` [Compound 33, (2S,4R)-1-((S)-2-(7-((1S,4S)-5-((R)-3-((4-(N-(4-(4-((2-(4-chlorophenyl)cyclohept-1-en-1-yl)methyl)piperazin-1-yl)benzoyl)sulfamoyl)-2-((trifluoromethyl)sulfonyl)phenyl)amino)-4-(phenylthio)butyl)-2,5-diazabicyclo[2.2.1]heptan-2-yl)-7-oxoheptanamido)-3,3-dimethylbutanoyl)-4-hydroxy-N—((S)-1-(4-(4-methylthiazol-5-yl)phenyl)ethyl)pyrrolidine-2-carboxamide], the IC50 was less than 500 nM.
For `Cc1ncsc1-c1ccc([C@H](C)NC(=O)[C@@H]2C[C@@H](O)CN2C(=O)[C@@H](NC(=O)CCCCCC(=O)N2C[C@@H]3C[C@H]2CN3CC[C@H](CSc2ccccc2)Nc2ccc(S(=O)(=O)NC(=O)c3ccc(N4CCN(CC5=C(c6ccc(Cl)cc6)CCC(C)(C)C5)CC4)cc3)cc2S(=O)(=O)C(F)(F)F)C(C)(C)C)cc1` [Compound 13, (2S,4R)-1-((S)-2-(7-((1S,4S)-5-((R)-3-((4-(N-(4-(4-((4′-chloro-4,4-dimethyl-3,4,5,6-tetrahydro-[1,1′-biphenyl]-2-yl)methyl)piperazin-1-yl)benzoyl)sulfamoyl)-2-((trifluoromethyl)sulfonyl)phenyl)amino)-4-(phenylthio)butyl)-2,5-diazabicyclo[2.2.1]heptan-2-yl)-7-oxoheptanamido)-3,3-dimethylbutanoyl)-4-hydroxy-N—((S)-1-(4-(4-methylthiazol-5-yl)phenyl)ethyl)pyrrolidine-2-carboxamide], the IC50 was less than 500 nM.
